# Test results published in patent publication US20130095059A1, “INHALED NO DONOR KMUPS DERIVATIVE PREVENTING ALLERGIC PULMONARY VASCULAR AND BRONCHIAL INFLAMMATION VIA SUPPRESSED CYTOKINES, INOS AND INFLAMMATORY CELL COUNTS IN ASTHMA MODEL” (priority 2007, published 2013).
# Tests used:
# [1] = test system: iNOS; assay: Ovalbumine model, iNOS expression; type: in vivo, BALB/c mice; conditions: 28-day experiment; nebulization
# [2] = test system: 5-HTT; assay: 5-HT-induced 5-HTT expression in PASMCs (Western blotting); type: cell-based, Wistar rats
# Procedure: (§1) PASMCs were stimulated with 5-HT or not, as indicated. Cells were treated with KMUP-1 for 24 h before 5-HT stimulation. Whole lysates were collected and resolved by SDS-PAGE as previously described. Primary antibodies were anti-β-actin at: 1:10,000 dilution and anti-RhoA, anti-ROCK, antiphospho-ERK1/2, anti-phospho-AKT, anti-ERK1/2, anti-AKT, anti-5HTT, anti-5-HT2B and anti-eNOS at 1:1000. All blots were incubated with antibodies at 4° C. overnight. After being washed, the appropriate secondary antibodies were added at a dilution of 1:1000 for 1 h at room temperature. After extensive washing, blots were developed with a Super Signal enhanced chemiluminescence kit (Biorad, CA, USA) and visualized on Kodak AR film.
# (§2) The expression of RhoA/ROCK and phosphorylation of ERK1/2 and AKT kinase in PASMCs were assessed by incubating the PASMCs with 5-HT (10 μM) for 15 min (peak time for RhoA/ROCK, ERK1/2 and AKT phosphorylation) and 5-HTT for 10 min (peak time for 5-HTT) after KMUP-1 (1-100 μM) was added to the culture of PASMCs for 24 h.
# [3] = test system: IL-13; assay: Ovalbumine model, plasma IL-13 (ELISA); type: in vivo, mice; conditions: mice sensitized and challenged by ovalbumine
# Procedure: (§3) In this long-term experiment, 6-8 week old BALB/c female mice were sensitized on days 1 and 8 by intra-peritoneal injection (i.p.) of ovalbumine (10 μg) (Sigma-Aldrich, Schnelldorf, Germany) adsorbed to 2 mg aluminum hydroxide (AlumInject; Perbio, Erembodegem, Belgium). Mice were divided into three groups. In Group 1, a control group was only exposed to saline nebulization by aerosol. The other 2 groups were subjected to ovalbumine (1%) nebulization. Before each challenge with ovalbumine, mice were either exposed to saline nebulization (Group 2) or KMUP-1 nebulization (5 mM) for 30 min by aerosol (Group 3).
# [4] = test system: eNOS; assay: Short term nebulization, eNOS expression in lung tissues; type: in vivo, BALB/c mice; conditions: nebulization 1.0˜2.5 mM, 30 mins, without ovalbumine sensitization
# Procedure: […] Aerosols were generated by ultrasonic nebulizer from day 21 to 27. Mice were sacrificed on day 28, (Cataldo D D, et al., 2002). Three different experiments were performed on cohorts of 7˜14 mice per experimental condition.
# The lung tissues were homogenized, washed with PBS and incubated in lysis buffer in addition to a protease inhibitor cocktail (Sigma, St. Louis, Mo.) to obtain extracts of lung proteins. A Western blot analysis was performed as described previously (Wu B N, et al., 2006). The samples were loaded to 10% SDS-PAGE gels and were separated at 120 V for 90 min. The blots were incubated with anti-eNOS antibody diluted at a ratio of 1:500, anti-sGCα1 antibody diluted at a ratio of 1:2000, anti-PKG antibody diluted at a ratio of 1:500, anti-VCAM-1 antibody diluted at a ratio of 1:500, anti-ICAM-1 antibody diluted at a ratio of 1:500, and anti-MMP-9 antibody diluted at a ratio of 1:600 overnight at 4° C. The membranes were stripped and re-blotted with anti-actin antibody (Sigma, St. Louis, Mo.) to verify the equal loading of protein in each lane.
# [5] = test system: ERK1/2; assay: 5-HT-induced ERK1/2 phosphorylation in PASMCs; type: cell-based, Wistar rats; conditions: 1-100 μM, 24 h pre-incubation
# Procedure: as §1, §2
# [6] = test system: NOx; assay: Ovalbumine model, NO metabolites (NOx) in BALF; type: in vivo, BALB/c mice; conditions: 24 hrs after last challenge; basal 65.4±8.2, ovalbumine 162.8±15.7
# Procedure: as §3
# The remaining BALF was centrifuged (900 g, 1200 rpm, 10 min) and the supernatant frozen (−80° C.) until determination of nitrite and nitrate by the Griess reaction. BALF (100 μL) was incubated (37° C.) for 30 min with N-2-hydroxyethylpiperazine-N′-ethane sulphonic acid buffer (HEPES) (50 mM, pH 7.4), flavin adenine dinucleotide (5 μM), nicotinamide adenine dinucleotide phosphate (0.1 mM), distilled water (290 μl), and nitrate reductase (0.2 U/ml) for the conversion of nitrate into nitrite. […] The samples were then incubated (25° C., 10 min) with Griess reagent [N-(1-naphthyl)-ethylenediamine: 0.2% (w/v), sulphanilamide: 2% (w/v), solubilized in double-distilled water: 95% and phosphoric acid: 5% (v/v)] and the absorbance measured at 540 nm. […]
# [7] = test system: ROCK; assay: 5-HT-induced ROCK expression in PASMCs; type: cell-based, Wistar rats; conditions: 1-100 μM, 24 h
# Procedure: as §1, §2
# [8] = test system: PASMCs; assay: PASMCs [Ca2+]i measurement (Fura-2/AM); type: cell-based, Wistar rats
# Procedure: Wistar rats were anesthetized with an overdose of sodium pentobarbital (60 mg/kg) and the skin was sterilized with 75% alcohol. The chest was opened and the heart and lung were removed. The organs were rinsed several times in PBS. The pulmonary artery were segregated in a sterile manner. The outer sphere was peeled and the microtubule was snipped visually, and endothecia were shaved lightly 2-3 times in order to remove endothelial cells. The tunica media was prepared into scraps (1 mm^3) in DMEM (Dulbecco's modified Eagle's medium). PASMCs were cultured in DMEM containing 10% fetal bovine serum (5% CO2 at 37° C.). The culture medium was changed every 3 days and cells were subcultured until confluence. Primary cultures of 2-4 passages were used in the experiments. Cells were examined by immunofluorescence staining of α-actin to confirm the purity of PASMCs.
# The measurement of [Ca^2+]i in PASMCs was performed using a spectrofluorophotometer as previously reported. PASMCs, cultured for 2-4 passages and re-suspended by trypsin, were loaded with Fura-2/AM for the measurement of [Ca^2+]i changes in cells within the cuvette by spectrofluorophotometer (Shimadzu, RF-5301PC, Shimadzu, Japan). KMUP-1 was applied 5 min before application of 5-HT (10 μM).
compound,measurement,setting,value
"Cn1c(=O)c2c(ncn2CCN2CCN(c3ccccc3Cl)CC2)n(C)c1=O [KMUP-1, 7-[2-[4-(2-chlorophenyl)piperazinyl]ethyl]-1,3-dimethylxanthine]",increased iNOS expression by ovalbumine sensitization,[1],significantly reduced
same,5-HT-induced expression of 5-HTT,[2]; 10 μM,inhibited
same,5-HT-induced expression of 5-HTT,"[2]; 1-100 μM, 24 h, then 5-HT 10 min",dose-dependently inhibited
same,IL-13 levels in the plasma,[3],inhibited
same,eNOS expression in mice lung tissues,[4],dose-dependently increased
same,5-HT-stimulated ERK1/2 phosphorylation,[5],concentration-dependently reduced
same,levels of NOx (nitrate+nitrite) in BALF,[6],86.3 ± 17.3 µM
same,5-HT-induced ROCK,[7],significantly inhibited
same,inhibition of sustained [Ca^2+]i response to 5-HT,[8]; 10 μM,65%
same,5-HT-induced elevation of [Ca^2+]i,"[8]; 0.1-100 μM, 5-HT 10 μM",concentration-dependently inhibited
